From US20260008758A1, “LINEAR DIPEPTIDYL PEPTIDASE 1 INHIBITORS AND USES THEREOF” (Insmed Incorporated, priority 2024, published 2026)
pIC50: −log10 of the molar value.

Key:
human DPP1 enzyme [1] = biological target: T1, human DPP1 enzyme (Homo sapiens (Human), UniProt P53634); assay: Human DPP1 enzyme IC50 assay; format: biochemical; conditions: recombinant human DPP1, H-Gly-Arg-AMC substrate 400 μM
Description: Test articles were applied to activated human DPP1 enzyme in Assay Buffer (25 mM MES pH 6.0, 50 mM NaCl, 5 mM DTT) in a total reaction volume of 125 μL. 25 μL of compound in Assay Buffer plus 5% DMSO was first added to 50 μL of activated human DPP1 enzyme at a concentration of 1 ng/μL and allowed to pre-incubate for 10 minutes at 37° C. after which 50 μL of 1000 μM H-Gly-Arg-AMC substrate (Bachem; St. Torrance, CA) was added, giving final substrate concentration of 400 μM and a final DMSO concentration of 1%. Substrate cleavage was measured for 90 minutes at 37° C., with fluorescence at Excitation/Emission 350/450 nm measured every 5 minutes. DPP1 concentration was interpolated based on its activity relative to a standard curve of activated human recombinant DPP1 enzyme. IC50 values for each compound were calculated via the XLFit (IDBS Version 5.3.1.3) Add-On to Microsoft Excel using the four parameter fit equation y={A+[(B-A)]/[1+((C/x)^D)]}, which appears as equation number 205 (4 Parameter Logistic Model or Sigmoidal Dose-Response Model) in XLFit. Default constraints were used for each Parameter.

DPP1 in HL-60 cells [2] = biological target: T2, DPP1 in HL-60 cells (Homo sapiens (Human), UniProt P53634); assay: DPP1 Cell IC50 assay; format: cell-based; conditions: H-Gly-Phe-AFC substrate, 60 min pre-incubation
T2 sequence (P53634 25-134): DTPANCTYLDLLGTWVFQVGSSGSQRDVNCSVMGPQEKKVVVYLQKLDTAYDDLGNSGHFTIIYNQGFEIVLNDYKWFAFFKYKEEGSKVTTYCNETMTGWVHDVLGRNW
T2 sequence (P53634 231-394): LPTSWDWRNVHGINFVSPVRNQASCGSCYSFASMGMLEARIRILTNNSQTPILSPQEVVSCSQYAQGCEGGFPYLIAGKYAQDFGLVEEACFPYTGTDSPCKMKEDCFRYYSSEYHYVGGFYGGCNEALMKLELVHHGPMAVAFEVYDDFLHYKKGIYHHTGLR
T2 sequence (P53634 395-463): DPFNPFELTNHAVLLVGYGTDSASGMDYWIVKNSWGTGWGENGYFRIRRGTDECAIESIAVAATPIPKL
Description: Media was changed every three to four days and cells were not allowed to exceed 1×10^6 cells per mL. Prior to assay, cells were collected by centrifugation at 500 rcf for 3 minutes, resuspended in PBS and counted. Cells were diluted in PBS to a concentration of 5×10^5 live cells per mL and transferred to black 96-well plates for assay, 60 μL per well. Test articles were diluted in PBS plus 0.5% DMSO, and 20 μL was added to each assay well. Compound was allowed to pre-incubate with cells with gentle shaking at 100 rpm for 60 minutes at 37° C. in a cell culture incubator maintained at 5% CO2, after which 20 μL of 500 μM H-Gly-Phe-AFC substrate (MP Biomedicals; Solon, OH) was added to each well. Plates were returned to the incubator with shaking at 100 rpm for 30 minutes, after which fluorescence was measured at Excitation/Emission 400/505 nm. % Inhibition was calculated from RFU values compared to control cell wells that received only PBS plus 0.5% DMSO. IC50 values for each compound were calculated via the XLFit (IDBS Version 5.3.1.3) Add-On to Microsoft Excel using the four parameter fit equation y=(A+((B-A)/(1+((C/x)^D)))), which appears as equation number 205 (4 Parameter Logistic Model or Sigmoidal Dose-Response Model) in XLFit.

human DPP1 enzyme [3] = biological target: T1, human DPP1 enzyme; assay: Human DPP1 enzyme single-point percent inhibition testing (HL-60 lysate, H-Gly-Arg-AMC substrate); format: biochemical; conditions: read-out: human DPP1 enzyme % inhibition @ 10 nM, 10 nM compound, 400 μM H-Gly-Arg-AMC, 10 min pre-incubation at 37° C.
DPP1 in HL-60 cells [4] = biological target: T2, DPP1 in HL-60 cells; assay: DPP1 cell single-point percent inhibition testing (HL-60 cells, H-Gly-Phe-AFC substrate); format: cell-based; conditions: read-out: DPP1 cell % inhibition @ 5 nM, 5 nM compound, 100 μM H-Gly-Phe-AFC, 60 min pre-incubation at 37° C.

T1 sequence (P53634 25-134): as the sequence (P53634 25-134) above
T1 sequence (P53634 231-394): as the sequence (P53634 231-394) above
T1 sequence (P53634 395-463): as the sequence (P53634 395-463) above

| SMILES | IC50 (human DPP1 enzyme [1]) | pIC50 (DPP1 in HL-60 cells [2]) | inhibition at 0.01 µM (human DPP1 enzyme [3]) | inhibition at 0.005 µM (DPP1 in HL-60 cells [4]) |
| --- | --- | --- | --- | --- |
| Cn1c(=O)oc2ccc(-c3ccc(C[C@@H](C#N)NC(=O)[C@@H](N)C4CCCO4)cc3)cc21 (stereo in doubt) [Compound 210, (2S)-2-amino-N-[(1S)-1-cyano-2-[4-(3-methyl-2-oxo-1,3-benzoxazol-5-yl)phenyl]ethyl]-2-[(2S)-oxolan-2-yl]acetamide] | 5 to 15 nM | ≤ 8.60 |  |  |
| Cn1c(=O)oc2ccc(-c3ccc(C[C@@H](C#N)NC(=O)[C@@H](N)C4CCCO4)cc3)cc21 (stereo in doubt) [Compound 212, (2S)-2-amino-N-[(1S)-1-cyano-2-[4-(3-methyl-2-oxo-1,3-benzoxazol-5-yl)phenyl]ethyl]-2-[(2R)-oxolan-2-yl]acetamide] | ≤ 5 nM | 8.60 to 9.00 |  |  |
| Cn1c(=O)oc2ccc(-c3ccc(CC(C#N)NC(=O)C4(N)CCCC45CC5)c(F)c3)cc21 (stereo in doubt) [Compound 273A, (4S)-4-amino-N-[(1S)-1-cyano-2-[2-fluoro-4-(3-methyl-2-oxo-1,3-benzoxazol-5-yl)phenyl]ethyl]spiro[2.4]heptane-4-carboxamide] | ≥ 15 nM | ≤ 8.60 |  |  |
| C[C@@H](N)[C@@H](O)C(=O)N[C@H](C#N)Cc1ccc(-c2ccc3oc(=O)n(C)c3c2)cc1 [Compound 102B] | ≥ 15 nM | ≤ 8.60 |  |  |
| CO[C@@H](CN)C(=O)N[C@H](C#N)Cc1ccc(-c2ccc3oc(=O)n(C)c3c2)cc1 [Compound 103, (2S)-3-amino-N-[(1S)-1-cyano-2-[4-(3-methyl-2-oxo-1,3-benzoxazol-5-yl)phenyl]ethyl]-2-methoxypropanamide] | ≥ 15 nM | ≤ 8.60 |  |  |
| CO[C@@H](CN(C)C)C(=O)N[C@H](C#N)Cc1ccc(-c2ccc3oc(=O)n(C)c3c2)cc1 [Compound 105, (2S)—N-[(1S)-1-cyano-2-[4-(3-methyl-2-oxo-1,3-benzoxazol-5-yl)phenyl]ethyl]-3-(dimethylamino)-2-methoxypropanamide] | ≥ 15 nM | 8.60 to 9.00 |  |  |
| CNC[C@H](OC)C(=O)N[C@H](C#N)Cc1ccc(-c2ccc3oc(=O)n(C)c3c2)cc1 [Compound 109, (S)—N—((S)-1-cyano-2-(4-(3-methyl-2-oxo-2,3-dihydrobenzo[d]oxazol-5-yl)phenyl)ethyl)-2-methoxy-3-(methylamino)propanamide] | ≥ 15 nM | ≤ 8.60 |  |  |
| Cn1c(=O)oc2ccc(-c3ccc(C[C@@H](C#N)NC(=O)CC(N)C4CCCCC4)cc3)cc21 (stereo partly drawn) [Compound 190, 3-amino-N-[(1S)-1-cyano-2-[4-(3-methyl-2-oxo-2,3-dihydro-1,3-benzoxazol-5-yl)phenyl]ethyl]-3-cyclohexylpropanamide] |  | ≤ 8.60 |  |  |
| CN(C)C[C@](C)(O)C(=O)N[C@H](C#N)Cc1ccc(-c2ccc3c(n2)CCCN3)cc1 [Compound 396] |  |  | ≤ 40% | ≤ 76.5% |
| CN(C)C[C@](C)(O)C(=O)N[C@H](C#N)Cc1ccc(-c2ccc3c(c2)C2(CC3)CCN(C)CC2)cc1F [Compound 397] |  |  | ≥ 66.7% | ≤ 76.5% |
| CN(C)C[C@](C)(O)C(=O)N[C@H](C#N)Cc1ccc(-c2ccc3c(c2)C2(CCCN(C)C2)C(=O)N3C)cc1F (stereo partly shown) [Compound 398] |  |  | ≥ 66.7% | ≥ 93.9% |
| CN(C)CCn1c(=O)oc2ccc(-c3ccc(C[C@@H](C#N)NC(=O)[C@@](C)(O)CN(C)C)c(F)c3)cc21 [Compound 399] |  |  | ≥ 66.7% | ≥ 93.9% |
| Cc1cn2cc(-c3ccc(C[C@@H](C#N)NC(=O)[C@@](C)(O)CN(C)C)c(F)c3)cc2c(C)n1 [Compound 400] |  |  | 40 to 66.7% | 76.5 to 93.9% |
| CN(C)C[C@](C)(O)C(=O)N[C@H](C#N)Cc1ccc(-c2ccc3c(c2)C2(CN(C)C2)OC3=O)cc1F [Compound 401] |  |  | ≥ 66.7% | ≥ 93.9% |
| CCN1C(=O)Cc2ccc(-c3ccc(C[C@@H](C#N)NC(=O)[C@@](C)(O)CN(C)C)c(F)c3)cc21 [Compound 402] |  |  | ≥ 66.7% | 76.5 to 93.9% |
| CN(C)C[C@](C)(O)C(=O)N[C@H](C#N)Cc1ccc(-c2ccc3c(c2)C2(CCN(C)C2)OC3=O)cc1F (stereo partly shown) [Compound 403] |  |  | ≥ 66.7% | 76.5 to 93.9% |

| SMILES | IC50 (human DPP1 enzyme [1]) | pIC50 (DPP1 in HL-60 cells [2]) | inhibition at 0.01 µM (human DPP1 enzyme [3]) | inhibition at 0.005 µM (DPP1 in HL-60 cells [4]) |
| --- | --- | --- | --- | --- |
| CN(C)C[C@](C)(O)C(=O)N[C@H](C#N)Cc1ccc(-c2ccc3cnn(C4CCN(C)CC4)c3c2)cc1F [Compound 404] |  |  | ≥ 66.7% | ≤ 76.5% |
| CN(C)C[C@](C)(O)C(=O)N[C@H](C#N)Cc1ccc(-c2ccc3c(c2)C2(CCN(C4COC4)CC2)OC3)cc1F [Compound 405] |  |  | ≥ 66.7% | 76.5 to 93.9% |
| CN(C)C[C@](C)(O)C(=O)N[C@H](C#N)Cc1ccc(-c2ccc3oc(=O)n(CCN4CCOCC4)c3c2)cc1F [Compound 406] |  |  | ≥ 66.7% | 76.5 to 93.9% |
| CN(C)C[C@](C)(O)C(=O)N[C@H](C#N)Cc1ccc(-c2ccc(CN3CCN(C)CC3)cc2)cc1F [Compound 407] |  |  | 40 to 66.7% | ≥ 93.9% |
| CN(C)C[C@](C)(O)C(=O)N[C@H](C#N)Cc1ccc(-c2ccc3oc(=O)n(C)c3c2)cc1F [Compound 408] |  |  | ≥ 66.7% | ≥ 93.9% |
| CN(C)C[C@](C)(O)C(=O)N[C@H](C#N)Cc1ccc(-c2ccc3c(n2)CCCN3)cc1F [Compound 409] |  |  | ≥ 66.7% | 76.5 to 93.9% |
| COCCN(C)CCn1c(=O)oc2ccc(-c3ccc(C[C@@H](C#N)NC(=O)[C@@](C)(O)CN(C)C)c(F)c3)cc21 [Compound 410] |  |  | ≥ 66.7% | ≥ 93.9% |
| CN(C)C[C@](C)(O)C(=O)N[C@H](C#N)Cc1ccc(-c2ccc3nnn(C)c3c2)cc1 [Compound 413] |  |  | 40 to 66.7% | 76.5 to 93.9% |
| CN(C)C[C@](C)(O)C(=O)N[C@H](C#N)Cc1ccc(-c2cnc3c(n2)CCCC3)cc1 [Compound 414] |  |  | ≤ 40% | ≤ 76.5% |
| CN(C)C[C@](C)(O)C(=O)N[C@H](C#N)Cc1ccc(-c2ccc(S(=O)(=O)N3CCC3)cc2)cc1 [Compound 415] |  |  | ≤ 40% | ≤ 76.5% |
| CN(C)C[C@](C)(O)C(=O)N[C@H](C#N)Cc1ccc(-c2ccc3cnn(C)c3c2)cc1F [Compound 416] |  |  | 40 to 66.7% | 76.5 to 93.9% |
| CN(C)C[C@](C)(O)C(=O)N[C@H](C#N)Cc1ccc(-c2ccc3nnn(C)c3c2)cc1F [Compound 417] |  |  | ≥ 66.7% | 76.5 to 93.9% |
| CN(C)C[C@](C)(O)C(=O)N[C@H](C#N)Cc1ccc(-c2cnc3c(n2)CCCC3)cc1F [Compound 418] |  |  | 40 to 66.7% | ≤ 76.5% |
| CN(C)C[C@](C)(O)C(=O)N[C@H](C#N)Cc1ccc(-c2ccc(S(=O)(=O)N3CCC3)cc2)cc1F [Compound 419] |  |  | ≤ 40% | ≤ 76.5% |
| CN(C)C[C@](C)(O)C(=O)N[C@H](C#N)Cc1cc2c(cc1F)-c1ccc(F)cc1CO2 [Compound 420] |  |  | ≤ 40% | ≤ 76.5% |
